Assay results reported in BigSolDB 2.1.

CC(=O)OC(c1ccccc1)C(Cl)(Cl)Cl (stereo unspecified)
solubility (mole fraction)
Settings	in acetic acid	in acetone	in acetonitrile	in ethanol	in ethyl acetate	in ethyl formate	in isopropanol	in methanol	in n-propanol
288.15 K	0.0201	0.0931	0.036	0.00865	0.117	0.0868	0.00712	0.00659	0.0105
293.15 K	0.0271	0.111	0.0408	0.0108	0.137	0.105	0.00929	0.00757	0.0132
298.15 K	0.0379	0.133	0.0579	0.0134	0.159	0.132	0.0129	0.00931	0.0164
303.15 K	0.0482	0.158	0.0719	0.0171	0.19	0.165	0.0169	0.0121	0.0216
308.15 K	0.0605	0.193	0.0989	0.0217	0.218	0.198	0.0211	0.0153	0.0287
313.15 K	0.0767	0.232	0.13	0.029	0.251	0.236	0.0279	0.02	0.0375
318.15 K	0.1	0.273	0.168	0.0406	0.287	0.274	0.0382	0.0264	0.0496
323.15 K	0.127	0.32	0.218	0.0555	0.333	0.314	0.0538	0.0342	0.0667
328.15 K	0.167	0.377	0.286	0.0735	0.38	0.363	0.0742	0.0447	0.0905
